Experiment [1] deals with AtADH2 (At1g15710), Arabidopsis thaliana canonical arogenate dehydrogenase, wild type (Arabidopsis thaliana, UniProt Q9LMR3). The experiment is described as follows: Tyr inhibition of AtADH2 wild type. Format: biochemical. The conditions noted are these: ADH activity, 0-8 mM L-Tyr. Here is the method:
(§1) Kinetic parameters of purified recombinant proteins were determined from assays conducted at varying arogenate (19.5 μM-5 mM) and prephenate concentration (23.4 μM-6 mM). Standard assay conditions were 25 mM HEPES pH 7.6, 50 mM KCl and 10% (v/v) ethylene glycol, and 0.5 mM NADP^+ with varied substrate, concentrations. Reactions were initiated by addition of enzyme and incubated at 37° C. monitored every 10-15 seconds at […] using a microplate reader (Tecan Genios). Kinetic parameters were determined by fitting initial velocity data to the Michaelis-Menten equation using the Origin software (OriginLab).
(§2) Arogenate was prepared by enzymatic conversion of prephenate (Sigma-Aldrich) as previously reported^56. For Tyr inhibition assays, Tyr was dissolved in a slightly basic solution (0.025 N NaOH) due to solubility issues, thus the concentration of lysis buffer was increased to 500 mM HEPES final concentration to buffer against the changes by addition of Tyr in the reaction. Reactions containing varying amounts of Tyr (10 μM-8 mM) with 0.5 mM NADP^+ and either 1 mM arogenate or 0.8 mM prephenate were monitored as above.

The test system of experiment [2] is SynADH, Synechocystis sp. PCC 6803 arogenate dehydrogenase. As to conditions: cited from earlier work.
The subject of experiment [3] is Peanut PDH/ADH (AipaensisVYE8T), Arachis ipaensis, wild type. Put plainly: ADH and PDH assay: steady-state kinetics and Tyr inhibition, peanut PDH/ADH. Format: biochemical. As to conditions: 0-8 mM L-Tyr. Here is the method: as §1, §2
For experiment [4], the target named is T1, SolyncADH (Slycopersicum06g050630), tomato noncanonical arogenate dehydrogenase, wild type (Solanum lycopersicum, UniProt K4C5K7).
T1 construct: wild type
The experiment is described as follows: ADH and PDH assay: steady-state kinetics and Tyr inhibition, SolyncADH wild type. Format: biochemical. Here is the method: as §1, §2

Experiment [5] concerns the target T2, Glycine max GmPDH1 variant N222D, SEQ ID NO: 2 (Glycine max, UniProt I1MYY4, N222D).
T2 sequence (I1MYY4 1-271 N222D): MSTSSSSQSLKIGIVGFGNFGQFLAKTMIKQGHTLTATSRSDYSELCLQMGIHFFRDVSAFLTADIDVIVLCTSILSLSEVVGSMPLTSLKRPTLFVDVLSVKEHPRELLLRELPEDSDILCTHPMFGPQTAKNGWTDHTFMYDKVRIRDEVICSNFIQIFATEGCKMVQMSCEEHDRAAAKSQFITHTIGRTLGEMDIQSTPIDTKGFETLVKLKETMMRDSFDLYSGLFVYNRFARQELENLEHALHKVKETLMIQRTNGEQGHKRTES
The experiment is described as follows: ADH and PDH assay: steady-state kinetics and Tyr inhibition, GmPDH1 N222D. Format: biochemical, Glycine max (soybean). As to conditions: IC50^Tyr, 0.5 mM NADP^+. The protocol:
as §1, §2

Experiment [6] addresses Arabidopsis thaliana AtADH2 variant D241N, SEQ ID NO: 12 (Arabidopsis thaliana, UniProt Q9LMR3, D275N). The experiment is described as follows: Tyr inhibition of AtADH2 D241N. Format: biochemical. The conditions noted are these: versus wild-type; ADH activity, 0-8 mM Tyr. The protocol: as §1, §2
Experiment [7] addresses Glycine max GmPDH1 variant M219T (Glycine max, UniProt I1MYY4, M219T). Put plainly: ADH and PDH assay: steady-state kinetics and Tyr inhibition, GmPDH1 M219T. The conditions noted are these: 0-8 mM L-Tyr. It is filed as biochemical, Glycine max (soybean). Here is the method: as §1, §2
Experiment [8] addresses T3, Medicago truncatula MtncADH variant D220C, SEQ ID NO: 10 (Medicago truncatula, UniProt A0A217FAR3, D220C).
T3 construct: D220C by site-directed mutagenesis
T3 sequence (A0A217FAR3 1-266 D220C): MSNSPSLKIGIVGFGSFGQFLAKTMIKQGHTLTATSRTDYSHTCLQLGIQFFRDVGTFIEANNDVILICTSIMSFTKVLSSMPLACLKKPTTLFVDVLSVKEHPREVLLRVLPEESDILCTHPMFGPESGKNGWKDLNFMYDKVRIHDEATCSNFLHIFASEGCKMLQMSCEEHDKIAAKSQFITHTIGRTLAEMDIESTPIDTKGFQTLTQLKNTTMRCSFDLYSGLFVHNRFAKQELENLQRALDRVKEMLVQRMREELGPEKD
The experiment is described as follows: ADH and PDH assay: steady-state kinetics and Tyr inhibition, MtncADH D220C. It is filed as biochemical. The protocol: as §1, §2

Experiment [9] addresses T4, MtPDH (MtPDH1; Mt3g071980), Medicago truncatula prephenate dehydrogenase, wild type (Medicago truncatula, UniProt A0A0A0R205).
T4 sequence (A0A0A0R205 1-268): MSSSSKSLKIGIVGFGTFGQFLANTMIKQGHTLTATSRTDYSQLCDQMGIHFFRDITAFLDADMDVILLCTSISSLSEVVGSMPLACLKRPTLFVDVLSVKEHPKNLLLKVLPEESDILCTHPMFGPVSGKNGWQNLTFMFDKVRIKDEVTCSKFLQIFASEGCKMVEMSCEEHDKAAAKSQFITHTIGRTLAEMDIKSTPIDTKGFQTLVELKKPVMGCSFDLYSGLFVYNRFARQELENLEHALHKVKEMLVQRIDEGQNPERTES
The experiment is described as follows: ADH and PDH assay: steady-state kinetics and Tyr inhibition, MtPDH wild type. It is filed as biochemical. The protocol: as §1
(§3) Arogenate was prepared by enzymatic conversion of prephenate (Sigma-Aldrich) as previously reported^56. For Tyr inhibition assays, Tyr was dissolved in a slightly basic solution (0.025 N NaOH) due to solubility issues, thus the concentration of lysis buffer was increased to 500 mM HEPES final concentration to buffer against the changes by addition of Tyr in the reaction. […]

For experiment [10], the system named is AaPDH, A. aeolicus prephenate dehydrogenase. As to conditions: cited from earlier work.
For experiment [11], the target named is T5, Glycine max GmncADH variant D218N (Glycine max, UniProt I1M7P5, D218N).
T5 construct: D218N by site-directed mutagenesis
The experiment is described as follows: ADH and PDH assay: steady-state kinetics and Tyr inhibition, GmncADH D218N. Format: biochemical, Glycine max (soybean). The conditions noted are these: versus wild-type; ADH activity, 0-8 mM Tyr. The protocol:
as §1, §2

In experiment [12] the target is T6, GmPDH1 (Gm18g02650), soybean (Glycine max) prephenate dehydrogenase, wild type (Glycine max, UniProt I1MYY4).
T6 construct: homodimer
T6 sequence (I1MYY4 1-271): T2 sequence (I1MYY4 1-271 N222D) with D222N
Put plainly: ADH and PDH assay: steady-state kinetics and Tyr inhibition, GmPDH1 wild type. It is filed as biochemical. Here is the method: as §1, §3

Numbering of substitutions follows the chain as printed.

As a reminder, the IC50 is the point on the concentration scale where inhibition reaches its midpoint.

Glycine max GmPDH1 variant M219T, sequence (I1MYY4 1-271 M219T): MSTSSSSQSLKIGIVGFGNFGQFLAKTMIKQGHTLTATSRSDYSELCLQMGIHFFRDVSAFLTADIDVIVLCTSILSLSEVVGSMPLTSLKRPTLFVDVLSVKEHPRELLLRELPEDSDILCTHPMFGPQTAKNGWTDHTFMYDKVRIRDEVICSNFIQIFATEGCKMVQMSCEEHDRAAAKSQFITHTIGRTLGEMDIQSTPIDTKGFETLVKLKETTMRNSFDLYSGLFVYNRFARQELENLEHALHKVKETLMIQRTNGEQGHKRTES
AtADH2 (At1g15710), Arabidopsis thaliana canonical arogenate dehydrogenase, wild type, sequence (Q9LMR3 37-358): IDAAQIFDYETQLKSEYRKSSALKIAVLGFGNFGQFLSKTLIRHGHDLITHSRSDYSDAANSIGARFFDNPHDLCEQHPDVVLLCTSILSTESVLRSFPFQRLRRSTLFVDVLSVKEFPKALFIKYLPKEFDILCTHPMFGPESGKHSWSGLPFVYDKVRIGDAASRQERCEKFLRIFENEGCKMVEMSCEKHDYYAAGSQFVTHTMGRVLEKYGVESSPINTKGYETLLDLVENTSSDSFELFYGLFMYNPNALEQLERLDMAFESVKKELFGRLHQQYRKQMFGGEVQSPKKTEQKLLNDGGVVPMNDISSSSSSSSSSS
T5 sequence (I1M7P5 1-266 D218N): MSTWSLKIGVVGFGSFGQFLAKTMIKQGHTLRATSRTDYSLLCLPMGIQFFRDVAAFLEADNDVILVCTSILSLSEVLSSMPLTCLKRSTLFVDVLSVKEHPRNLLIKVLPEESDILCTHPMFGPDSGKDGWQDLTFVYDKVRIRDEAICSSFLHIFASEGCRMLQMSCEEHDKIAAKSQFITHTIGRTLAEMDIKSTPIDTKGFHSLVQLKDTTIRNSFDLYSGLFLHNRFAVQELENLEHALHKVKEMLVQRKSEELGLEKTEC
Arabidopsis thaliana AtADH2 variant D241N, SEQ ID NO: 12, sequence (Q9LMR3 37-358 D275N): as the sequence (Q9LMR3 37-358) above, with D239N counted along it
T1 sequence (K4C5K7 1-272): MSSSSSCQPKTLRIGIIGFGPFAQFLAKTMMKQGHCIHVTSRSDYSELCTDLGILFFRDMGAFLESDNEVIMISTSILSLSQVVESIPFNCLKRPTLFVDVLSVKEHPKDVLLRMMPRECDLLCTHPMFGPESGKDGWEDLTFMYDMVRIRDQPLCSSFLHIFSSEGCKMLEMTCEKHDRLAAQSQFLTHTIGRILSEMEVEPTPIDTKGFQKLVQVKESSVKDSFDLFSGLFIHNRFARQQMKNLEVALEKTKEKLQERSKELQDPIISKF

Regarding `N[C@@H](Cc1ccc(O)cc1)C(=O)O` [Tyr, L-Tyrosine], the IC50 in experiment [1] came to 0.038 mM; in [4], 12.8 mM; in experiment [5] (substrate arogenate (1 mM)), 4.7 ± 0.4 mM; in experiment [5] (substrate prephenate (0.8 mM)) it was 5.3 ± 0.4 mM; in [8] it was 7.7 ± 1.5 mM; in [9] it was 32.1 ± 10 mM. This compound came in with an IC50 in experiment [12] of 31.3 ± 9.3 mM. Besides, the Tyr sensitivity result in experiment [2] was “Tyr insensitive”; in experiment [10], “sensitive to Tyr”. The Tyr inhibition result in experiment [3] is given as “insensitive to Tyr inhibition”. For the same compound, the “sensitivity to Tyr inhibition” value in [6] is “significantly less sensitive to Tyr inhibition”; in [8] (versus wild-type, ADH activity, 0-8 mM Tyr), “significantly less sensitive to Tyr inhibition”; in [11] it was “significantly less sensitive to Tyr inhibition”. Besides, the “inhibition by Tyr” value in experiment [7] was “not inhibited by Tyr”. Also, the “feedback inhibition by Tyr” value in [9] (up to 8 mM Tyr in assays) and in experiment [12] (up to 8 mM Tyr in assays) was “insensitive to feedback inhibition by Tyr” throughout.

The values are drawn from US12134788B2, “Engineered prephenate dehydrogenases and arogenate dehydrogenases and methods of using the same” (Wisconsin Alumni Research Foundation, priority 2017, dated 2024).
